Test results from the OligoGym collection.
These antisense oligonucleotides have a phosphorothioate backbone; sugars and methylation of C are not fully specified.

How the values were obtained:
GNA11 = details: ASO
TNFRSF1A = details: ASO
Further: test concentration or dose not given here.

Row | Sequence | remaining target (mRNA or protein) (fraction of control) (GNA11) | remaining target (mRNA or protein) (fraction of control) (TNFRSF1A)
1 | AAGCCGCGCTTGTCCTCC | 0.44 | 
2 | AAGTAGTCCACCAGGTGC | ≥ 1 | 
3 | ACCAGATTGTACTCCTTC | ≥ 1 | 
4 | ACGGCCGCGAACACGAAG | 0.94 | 
5 | ACGTGCTCTTCCCGCTCT | 0.72 | 
6 | ACTGACGTACTGATGCTC | 0.64 | 
7 | AGATGATGTTCTCCAGGT | ≥ 1 | 
8 | AGGGCTTTGCTCTCCTCC | 0.23 | 
9 | AGTAGGTTCCTTTGTGGC |  | 0.54
10 | ATAGCGTCCCTCATCCTC |  | 0.66
11 | ATCCGCTTGGACTCCTTC | 0.83 | 
12 | ATCCGGAAGATGATGTTC | ≥ 1 | 
13 | ATCCGGTTCTCGTTGTCC | 0.78 | 
14 | ATCCTCGCAAACCACCCA |  | 0.71
15 | ATCTGAGAAGACTGGGCG |  | ≥ 1
16 | ATCTGCTTGATGAACGTG | ≥ 1 | 
17 | ATCTTGTCCTCCAGCAGG | 0.96 | 
18 | ATGATGGATGTCACGTTC | ≥ 1 | 
19 | ATGTTCTCCGTGTCGGTG | ≥ 1 | 
20 | ATTATTTTGAGGGTGGAT |  | ≥ 1
21 | CAAAGACCAAAGAAAATG |  | 0.71
22 | CAATGAAGAGGAGGGATA |  | 0.79
23 | CACCAGCGGCAGCAGCAG |  | 0.79
24 | CACCTGACCCATTTCCTT |  | 0.54

Row | Sequence | remaining target (mRNA or protein) (fraction of control) (GNA11) | remaining target (mRNA or protein) (fraction of control) (TNFRSF1A)
25 | CACGCCATGATGGACTCC | ≥ 1 | 
26 | CACGTGAAGTGTGAGTAG | ≥ 1 | 
27 | CAGGAGCACCAGCGGCAG |  | 0.54
28 | CAGGAGCGCATTGGCCTT | ≥ 1 | 
29 | CAGGGTCTTGATGGCACT | ≥ 1 | 
30 | CAGTCCGTATCCTGCCCC |  | 0.74
31 | CATTTCCTTTCGGCATTT |  | 0.87
32 | CATTTGGGCTCAGGGCAG |  | 0.91
33 | CCAGGTCGAAAGGGTACT | ≥ 1 | 
34 | CCATCCGGTTCTCGTTGT | 0.81 | 
35 | CCATTGAGGCAGAGGCTG |  | 0.52
36 | CCCGCCGCAGCTGCTTCT | 0.42 | 
37 | CCGCCTCCAGGTCGCCAG |  | ≥ 1
38 | CCGTTGGTAGCGATACAT |  | 0.7
39 | CGACTCCACCAGGACTTG | 0.6 | 
40 | CGAGAAACATGATGGATG | ≥ 1 | 
41 | CGCAAACCACCCACTCAG |  | 0.49
42 | CGCAAAGTTGGGACAGTC |  | 0.7
43 | CGCATCTGCTTGATGAAC | ≥ 1 | 
44 | CGCCTGCGGTCGTAGCAT | ≥ 1 | 
45 | CGGATCATGGCCTGCATG | 0.99 | 
46 | CGTCCTGCTGGGTGGGCA | 0.6 | 
47 | CGTCTCCATGGCCCGGAT | 0.51 | 
48 | CGTTGATCCGCTTGGACT | ≥ 1 | 

Row | Sequence | remaining target (mRNA or protein) (fraction of control) (GNA11) | remaining target (mRNA or protein) (fraction of control) (TNFRSF1A)
49 | CTACAGGAGACACACTCG |  | 0.72
50 | CTCAGGGACGAACCAGGG |  | 0.97
51 | CTCAGGGCAGTGTGGCAG |  | 0.39
52 | CTCATCGCTCAGGCAACA | 0.39 | 
53 | CTCCACGTCCACCTCCCG | 0.31 | 
54 | CTCCGCTCCGACCGCTGG | 0.44 | 
55 | CTCGATCTCGGCGTTGAT | ≥ 1 | 
56 | CTGGATGCCCGGGTCCTC | ≥ 1 | 
57 | CTGTCCTCCCACTTCTGA |  | 0.84
58 | CTTACAGTTACTACAGGA |  | 0.79
59 | CTTAGTAGTAGTTCCTTC |  | 0.85
60 | CTTCACCTCATCGCTCAG | 0.8 | 
61 | CTTGAGCTCGCGCCGGGC | 0.69 | 
62 | CTTGATGGCACTGACGTA | 0.22 | 
63 | CTTGTCCTCCTCCGAGTA | 0.21 | 
64 | GAAGCCTGGAGTGGGACT |  | 0.52
65 | GACCCATTTCCTTTCGGC |  | 0.74
66 | GACTCCTTCACCTCATCG | 0.85 | 
67 | GATCCACTTCCTCCGCTC | 0.41 | 
68 | GATGAACTCCCGCGCCGC | 0.48 | 
69 | GATGCTCGAAGGTGGTCA | 0.67 | 
70 | GATGGACTCCAGAGTCAT | ≥ 1 | 
71 | GATGGTGTCCTTCACGGC | ≥ 1 | 
72 | GCAGAGGGCACAGGAGTG |  | 0.76

Row | Sequence | remaining target (mRNA or protein) (fraction of control) (GNA11) | remaining target (mRNA or protein) (fraction of control) (TNFRSF1A)
73 | GCAGCAGCAGCTTGAGCT | ≥ 1 | 
74 | GCAGCAGCAGGTCAGGCA |  | 0.63
75 | GCAGCCCAGCAGGTCCAT |  | 0.68
76 | GCAGGTAGCCCAAGGTGG | 0.8 | 
77 | GCAGGTCAGGCACGGTGG |  | 0.84
78 | GCAGGTCCTTCTTGTTGA | 0.94 | 
79 | GCAGTGTGGCAGCGGCAG |  | 0.47
80 | GCCAAGTTTCTATTAGTG |  | 0.9
81 | GCCATGATGGACTCCAGA | 0.25 | 
82 | GCCCGTGCCGAGCAGCAG | ≥ 1 | 
83 | GCCTGGACAGTCATTGTA |  | ≥ 1
84 | GCCTTGTTCTGCTCGTAC | 0.75 | 
85 | GCGAGTACAGGATCTTGT | 0.83 | 
86 | GCTCCTGCTTGCCCCTGC |  | 0.57
87 | GCTGAGGGCGACGAGAAA | 0.25 | 
88 | GCTGGTACTCGCGCCTGC | 0.59 | 
89 | GCTTGTCCAGGCAGAGGG |  | 0.82
90 | GCTTTTCTTACAGTTACT |  | 0.9
91 | GGACTGAAGCCCAGGGTG |  | 0.88
92 | GGAGGAGTTCTGGAACCA | 0.36 | 
93 | GGTACTGGTTCTTCCTGC |  | 0.86
94 | GGTCAACGTCGGTCAGGT | 0.82 | 
95 | GGTCACCTTCTCCACGTC | 0.73 | 
96 | GGTCCGGAACAGGGCTTT | 0.74 | 

Row | Sequence | remaining target (mRNA or protein) (fraction of control) (GNA11) | remaining target (mRNA or protein) (fraction of control) (TNFRSF1A)
97 | GGTGACAGTTGAGGGTTG |  | 0.92
98 | GGTGGTGGGCACGCGGAC | ≥ 1 | 
99 | GGTTCAGGTCCACGAACA | 0.29 | 
100 | GGTTGAGACTCGGGCATA |  | 0.6
101 | GGTTTTCTGAAGCGGTGA |  | 0.83
102 | GTAGATGATCTTGTCGCT | ≥ 1 | 
103 | GTAGCCGGCGCCGTGGAT | 0.99 | 
104 | GTAGGTGATGATGGTCCG | ≥ 1 | 
105 | GTCAGGCACGGTGGAGAG |  | ≥ 1
106 | GTCAGGTAGTACTTGGCA | 0.24 | 
107 | GTCCAGGCAGAGGGCACA |  | 0.79
108 | GTCTGAGGTGGTTTTCTG |  | 0.66
109 | GTGCCACCTCTCTGCGGG |  | ≥ 1
110 | GTGGAACTGGGCACGGGA |  | 0.96
111 | GTGGCGATGCGGTCAACG | 0.99 | 
112 | GTTAGCACCAAGTAGGCG |  | 0.89
113 | GTTCCTTTGTGGCACTTG |  | 0.88
114 | TAACATTCTCAATCTGGG |  | ≥ 1
115 | TACTTGGCAGAGTCGGAG | 0.66 | 
116 | TAGACGAGCTTGGTGAAG | ≥ 1 | 
117 | TAGAGGATCTTGAGCGTC | ≥ 1 | 
118 | TATATTCCCACCAACAGC |  | 0.75
119 | TCAGGTTCAGCTGCAGGA | 0.97 | 
120 | TCCAGGCTTTTCTTACAG |  | ≥ 1

Row | Sequence | remaining target (mRNA or protein) (fraction of control) (GNA11) | remaining target (mRNA or protein) (fraction of control) (TNFRSF1A)
121 | TCCCCTCCTCTCTGCTTT |  | 0.95
122 | TCCGTGCTCGCCCCTGCC |  | 0.81
123 | TCCTCCAGGCAGCCCAGC |  | 0.59
124 | TCCTGGATGCCCGGGTCC | 0.7 | 
125 | TCGATGATGCCGGTGGTG | ≥ 1 | 
126 | TCGATTTCCCACAAACAA |  | 0.99
127 | TCGTGGTCGCTCAGCCCT |  | 0.72
128 | TCTGAAGCGGTGAAGGAG |  | ≥ 1
129 | TCTTCTCCCTGTCCCCTA |  | 0.87
130 | TGAAGGTGGAACTGGGCA |  | 0.73
131 | TGAGGAAGAGGATGACGG | ≥ 1 | 
132 | TGAGGGTTGAGACTCGGG |  | 0.98
133 | TGCCTTAGGACAGTTCAG |  | 0.8
134 | TGCTCGTACTTGTAGAGG | 0.93 | 
135 | TGGCGGTGAAGATGTTCT | ≥ 1 | 
136 | TGTAGAGGATCTTGAGCG | ≥ 1 | 
137 | TTAAACCAATGAAGAGGA |  | 0.72
138 | TTCTCTGGACTGAGGCTC |  | 0.81
139 | TTGGGCTCAGGGCAGTGT |  | ≥ 1
140 | TTGTTCCGTGCTCGCCCC |  | 0.59
141 | TTTTCACTCCAATAATGC |  | ≥ 1
